In assay [1] the target is T1, purified human topoisomerase I (Homo sapiens, UniProt P11387).
T1 construct: purchased Topogen
T1 sequence (P11387 1-765): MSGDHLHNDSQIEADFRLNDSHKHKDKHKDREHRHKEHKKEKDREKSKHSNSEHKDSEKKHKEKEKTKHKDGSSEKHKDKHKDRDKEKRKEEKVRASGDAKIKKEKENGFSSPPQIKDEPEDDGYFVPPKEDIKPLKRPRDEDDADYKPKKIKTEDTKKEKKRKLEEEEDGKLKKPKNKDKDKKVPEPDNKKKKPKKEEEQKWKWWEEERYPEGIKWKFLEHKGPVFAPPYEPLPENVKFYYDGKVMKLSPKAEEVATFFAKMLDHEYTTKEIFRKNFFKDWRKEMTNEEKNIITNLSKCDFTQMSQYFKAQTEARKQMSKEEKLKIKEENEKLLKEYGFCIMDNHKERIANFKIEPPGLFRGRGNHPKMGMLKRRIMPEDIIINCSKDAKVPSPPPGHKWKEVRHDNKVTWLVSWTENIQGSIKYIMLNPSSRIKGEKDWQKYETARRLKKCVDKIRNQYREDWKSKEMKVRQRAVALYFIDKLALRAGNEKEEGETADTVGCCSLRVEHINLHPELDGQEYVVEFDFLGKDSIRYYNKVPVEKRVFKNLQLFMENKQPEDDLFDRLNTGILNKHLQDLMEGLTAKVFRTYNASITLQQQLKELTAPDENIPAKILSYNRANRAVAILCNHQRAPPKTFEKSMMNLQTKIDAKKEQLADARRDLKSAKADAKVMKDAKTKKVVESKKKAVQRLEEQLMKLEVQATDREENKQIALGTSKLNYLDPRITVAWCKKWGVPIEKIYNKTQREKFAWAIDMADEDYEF
Kind of assay: Topoisomerase I mediated single strand break formation in DNA (in vitro). The assay is classed as biochemical. The settings on record: for EC50: PM2 DNA, 30 minutes at 37° C, median effective concentration for single strand DNA break formation; for Topo-I activity: result in words. How it is done:
Samples dissolved in 100% DMSO as either […] or 10 mg/ml solutions, unless otherwise stated, were diluted in Tris-EDTA buffer. Marine bacteriophage PM2 DNA (Boehringer Mannheim) was also diluted in Tris-EDTA buffer to a concentration of 0.02 µg/µl. Different dilutions of compound being evaluated were mixed with diluted DNA and this mixture was added to 1000 unit (one unit of enzyme activity is defined as the amount capable of relaxing 100 ng of supercoiled DNA in approximately 30 minutes at 37°C) aliquots of purified human topoisomerase I (Topogen) in 2X reaction buffer to start the reaction. The compound - DNA - enzyme mixture was incubated for 30 minutes at 37° C before stopping the reaction with warm stop buffer containing sodium dodecyl sulfate and proteinase K (Sigma). These mixtures were allowed to incubate at 37° C for another 10 minutes, at which time the mixtures were removed from the waterbath and extracted with a 24:1 mixture of chloroform/isoamyl alcohol. Following centrifugation, aliquots of the aqueous phases were placed in wells of a 0.9% agarose (SeaKem) gel in Tris-borate buffer containing 0.5 µg/ml of ethidium bromide and subjected to electrophoresis for 15 hours to separate the different topological isomers and nicked and broken DNAs. After destaining the gel in water, the ethidium bromide stained DNA reaction products were visualized by exposing the gel to UV irradiation. Negatives of photographs of the irradiated gels were scanned with a densitometer and areas under the peaks were calculated in order to obtain percent single strand DNA break formation for each sample. A median effective concentration(EC50) was obtained for each compound by interpolation between points of the resulting dose - effect curve which defines the potency of the compound for its effect for inducing topoisomerase I mediated single strand breaks in DNA.

For assay [2], the system named is HCT116 human colon carcinoma cells. Briefly: In-vitro cell-based cytotoxicity, XTT assay. Conditions: HCT-116, 72 hrs incubation, absorbance at 450 nm. The procedure:
The proliferation inhibition activity against human colon cell line was measured as follows.
Cytotoxicity was assessed in HCT116 human colon carcinoma cells by XTT (2,3-bis(2-methoxy-4-nitro- 5-sulfophenyl)-5-[(phenylamino)carbonyl]-2H-tetrazolium hydroxide assay as described in the literature by Scudiero, DA, Shoemaker, RH, Paull, KD, Monks, A, Tierney, S, Nofziger, TH, Currens, MJ, Seniff, D, and Boyd, MR. Evaluation of a soluble tetrazolium/formazan assay for cell growth and drug sensitivity in culture using human and other tumor cell lines, was done according to the procedure described in Cancer Res. 48: 4827-4833, 1988. Cells were plated at 4000 cells/well in 96 well microtiter plates and 24 hrs later drugs were added and serial diluted. The cells were incubated at 37° C for 72 hrs at which time the tetrazolium dye, XTT, containing phenazine methosulfate was added. A dehydrogenase enzyme in live cells reduces the XTT to a form that absorbs light at […] which can be quantitated spectrophotometrically. The greater the absorbance the greater the number of live cells. The results are expressed as an IC50 which is the drug concentration required to inhibit cell proliferation (i.e. absorbance at 450 nm) to 50% of that of untreated control cells.

A further assay concerns P388 leukemia cells. Kind of assay: In-vivo anti-tumor efficacy against ip implanted P388 leukemia. Also noted: species or system mice (BDF1 or CDF1); MST: unit not given here. Conditions: for T/C (%): ip, MST(T)/MST(C) x 100, activity defined as >= 125%; for MST: one ip injection one day after implant, median survival time of treated mice. The procedure:
In-vivo antitumor experiments were initiated by implanting mice (BDF1 or CDF1) ip with 10(6) P388 leukemia cells. Treatments were initiated one day after implant and involved one ip injection per dose level; several dose levels were evaluated per compound. Six mice were typically used per dose level in treatment groups, and eight to ten mice were used as parallel untreated leukemic controls. Evaluation of activity was made on the basis of comparing the median survival time (MST) of treated (T) mice with the MST of control (C) mice. Activity was defined as a %T/C of > or = 125%, calculated as: MST(T)/MST(C) x 100 = %T/C Table I

The EC50 is the concentration needed to bring the measured effect to its halfway point. `O=C1c2c(c3c4cc(F)ccc4n([C@@H]4O[C@H](CF)[C@@H](O)[C@H](O)[C@H]4O)c3c3sc4ccc(F)cc4c23)C(=O)N1O` [Example 69]: in assay [1], a half-maximal response (EC50) required 0.03 µM.

For orientation: IC50 means the concentration at which inhibition is half-maximal. `O=C1NC(=O)c2c1c1c3cc(F)ccc3[nH]c1c1c2c2cc(F)ccc2n1[C@@H]1O[C@H](CN2CCOCC2)[C@@H](O)[C@H](O)[C@H]1O` [Example 29, 3,9-Difluoro-12,13-dihydro-13-[6-(4N-morpholino)-β-D-glucopyranosyl]-5H-indolo[2,3-a]pyrrolo [3,4-c] carbazole-5,7(6H)-dione]: in assay [2], inhibition was half-maximal at 0.09 µM (IC50). The compound further showed an EC50 in assay [1] of 0.01 µM. Also, the “T/C (%)” value in the assay on P388 leukemia cells (P388, 25 mg/kg/dose) came to 127%; in the assay on P388 leukemia cells (P388, 50 mg/kg/dose), 109%; with P388 leukemia cells (P388, 100 mg/kg/dose) it was 150%; with P388 leukemia cells (P388, 200 mg/kg/dose) it was 91%. Also, the MST is on record as 14.0 in the assay on P388 leukemia cells (P388, 25 mg/kg/dose); 12.0 in the assay on P388 leukemia cells (P388, 50 mg/kg/dose); 16.5 in the assay on P388 leukemia cells (P388, 100 mg/kg/dose); 10 in the assay with P388 leukemia cells (P388, 200 mg/kg/dose).

`CN1CCN(C[C@H]2O[C@@H](n3c4ccc(F)cc4c4c5c(c6c7cc(F)ccc7[nH]c6c43)C(=O)NC5=O)[C@H](O)[C@@H](O)[C@@H]2O)CC1` [Example 35]: in assay [2], the half-maximal inhibitory concentration (IC50) was 0.5 µM. The EC50 in assay [1] is 0.75 µM.

With `O=C1NC(=O)c2c1c1c3cc(F)ccc3[nH]c1c1c2c2cc(F)ccc2n1[C@@H]1O[C@H](CF)[C@@H](O)[C@H](O)[C@H]1O` [Example 47], in assay [1], the EC50 stood at 0.1 µM.

For `CO[C@H]1[C@H](O)[C@@H](O)[C@H](n2c3c(Cl)cccc3c3c4c(c5c6cccc(Cl)c6[nH]c5c32)C(=O)NC4=O)O[C@@H]1CO` [rebeccamycin, reference compound], in assay [1], the Topo-I activity entry is listed as “not Topo-I active”.

Take `NC[C@H]1O[C@@H](n2c3ccc(F)cc3c3c4c(c5c6cc(F)ccc6[nH]c5c32)C(=O)N(O)C4=O)[C@H](O)[C@@H](O)[C@@H]1O` [Example 31, 3,9-Difluoro-12,13-dihydro-13-[6-amino-β-D-glucopyranosyl]-5H-indolo[2,3-a]pyrrolo [3,4-c] carbazole-5,7(6-hydroxy)dione]: the concentration giving a half-maximal response (EC50) in assay [1] is less than 0.01 µM.

`CCN(CC)C[C@H]1O[C@@H](n2c3ccc(F)cc3c3c4c(c5c6cc(F)ccc6[nH]c5c32)C(=O)N(O)C4=O)[C@H](O)[C@@H](O)[C@@H]1O` [Example 68]: the EC50 in assay [1] was found to be 0.03 µM.

With `O=C1c2c(c3c4cc(F)ccc4n([C@@H]4O[C@H](CF)[C@@H](O)[C@H](O)[C@H]4O)c3c3[nH]c4ccc(F)cc4c23)C(=O)N1O` [Example 48], in assay [1], the concentration for a half-maximal effect (EC50) was 0.4 µM.

`NC[C@H]1O[C@@H](n2c3ccc(F)cc3c3c4c(c5c6cc(F)ccc6[nH]c5c32)C(=O)NC4=O)[C@H](O)[C@@H](O)[C@@H]1O` [Example 19] registered a half-inhibitory concentration (IC50) in assay [2] of 0.11 µM. In assay [1], this compound yielded an EC50 of 0.04 µM. Also, the Topo-I activity result in assay [1] was “sub micro molar”. The “T/C (%)” value in the assay on P388 leukemia cells (P388, 25 mg/kg/dose) is on record as 155%; in the assay with P388 leukemia cells (P388, 50 mg/kg/dose), 168%; with P388 leukemia cells (P388, 100 mg/kg/dose) it was 182%; in the assay with P388 leukemia cells (P388, 200 mg/kg/dose), 82%. Moreover, the MST with P388 leukemia cells (P388, 25 mg/kg/dose) is 17.0; with P388 leukemia cells (P388, 50 mg/kg/dose), 18.5; in the assay with P388 leukemia cells (P388, 100 mg/kg/dose), 20.0; with P388 leukemia cells (P388, 200 mg/kg/dose), 9.0. The anti-tumor activity entry in the assay with P388 leukemia cells (result in words) is reported as “effective anti-tumor agent”.

`NC[C@H]1O[C@@H](n2c3cc(F)ccc3c3c4c(c5c6ccc(F)cc6[nH]c5c32)C(=O)N(N)C4=O)[C@H](O)[C@@H](O)[C@@H]1O` [Example 18, 6-Amino-13-(6-amino-6-deoxy-β-D-glucopyranosyl)-2,10-difluoro-12,13-dihydro-5H-indolo[2,3-a]pyrrolo[3,4-c]carbazole-5,7(6H)-dione] returned a concentration for half-maximal inhibition (IC50) in assay [2] greater than 1.45 µM. Moreover, in assay [1], the “Topo-I activity (concentration without activity)” value is “greater than 100 micro molar” and the EC50 was greater than 100 µM.

With `[N-]=[N+]=NC[C@H]1O[C@@H](n2c3ccc(F)cc3c3c4c(c5c6cc(F)ccc6[nH]c5c32)C(=O)N(O)C4=O)[C@H](O)[C@@H](O)[C@@H]1O` [Example 30, 3,9-Difluoro-12,13-dihydro-13-[6-azido-β-D-glucopyranosyl]-5H-indolo[2,3-a]pyrrolo [3,4-c] carbazole-5,7(6-hydroxy)dione], the EC50 in assay [1] is less than 0.01 µM.

With `O=C1NC(=O)c2c1c1c3cc(F)ccc3[nH]c1c1c2c2cc(F)ccc2n1[C@@H]1O[C@H](Cn2ccnc2)[C@@H](O)[C@H](O)[C@H]1O` [Example 34], a half-maximal effect in assay [1] (EC50) was put at 23 µM.

Compound `CS(=O)(=O)OC[C@H]1O[C@@H](n2c3ccc(F)cc3c3c4c(c5c6cc(F)ccc6[nH]c5c32)C(=O)NC4=O)[C@H](O)[C@@H](O)[C@@H]1O` [Example 15, 3,9-Difluoro-12,13-dihydro-13-[6-O-(methylsulfonyl)-β-D-glucopyranosyl]-5H-indolo[2,3-a]pyrrolo[3,4-c]carbazole-5,7(6H)-dione] returned an IC50 in assay [2] of 0.26 µM. The compound further registered a concentration for a half-maximal effect (EC50) in assay [1] of 0.03 µM.

The values above are taken from patent publication EP0971717B1, “CYTOTOXIC AMINO SUGAR AND RELATED SUGAR DERIVATIVES OF INDOLOPYRROLOCARBAZOLES” (Bristol-Myers Squibb Company, priority 1996, dated 1998).
